Experimental data as given in patent publication US8044073B2, “Aminobenzimidazoles and benzimidazoles as inhibitors of respiratory syncytial virus replication” (Tibotec Pharmaceuticals, priority 2003, dated 2011).

Tested on: Respiratory Syncytial Virus
Assay: In vitro screening for activity against RSV (tetrazolium-based colorimetric assay, protection against viral cytopathology)
Format: cell-based
Details: Table 1; RSV in HeLa cells, MTT, seven days after infection; pEC50 = -log of EC50 in molar units
Source text: The percent protection against cytopathology caused by viruses (antiviral activity or EC50) achieved by tested compounds and their cytotoxicity (CC50) are both calculated from dose-response curves. The selectivity of the antiviral effect is represented by the selectivity index (SI), calculated by dividing the CC50 (cytotoxic dose for 50% of the cells) by the EC50 (antiviral activity for 50% of the cells). The tables in the above experimental part list the category to which each of the prepared compounds belong: Compounds belonging to activity category “A” have a pEC50 (−log of EC50 when expressed in molar units) equal to or more than 7. Compounds belonging to activity category “B” have a pEC50 value between 6 and 7.
Automated tetrazolium-based colorimetric assays were used for determination of EC50 and CC50 of test compounds. Flat-bottom, 96-well plastic microtiter trays were filled with 180 μl of Eagle's Basal Medium, supplemented with 5% FCS (0% for FLU) and 20 mM Hepes buffer. Subsequently, stock solutions (7.8× final test concentration) of compounds were added in 45 μl volumes to a series of triplicate wells so as to allow simultaneous evaluation of their effects on virus- and mock-infected cells. Five five-fold dilutions were made directly in the microtiter trays using a robot system. Untreated virus controls, and HeLa cell controls were included in each test. Approximately 100 TCID50 of Respiratory Syncytial Virus was added to two of the three rows in a volume of 50 μl. The same volume of medium was added to the third row to measure the cytotoxicity of the compounds at the same concentrations as those used to measure the antiviral activity. After two hours of incubation, a suspension (4×10^5 cells/ml) of HeLa cells was added to all wells in a volume of 50 μl. The cultures were incubated at 37° C. in a 5% CO2 atmosphere. Seven days after infection the cytotoxicity and the antiviral activity was examined spectrophotometrically. To each well of the microtiter tray, 25 μl of a solution of MTT (3-(4,5-dimethylthiazol-2-yl)-2,5-diphenyltetrazolium bromide) was added. The trays were further incubated at 37° C. for 2 hours, after which the medium was removed from each cup. Solubilization of the formazan crystals was achieved by adding 100 μl 2-propanol. Complete dissolution of the formazan crystals were obtained after the trays have been placed on a plate shaker for 10 min. Finally, the absorbances were read in an eight-channel computer-controlled photometer (Multiskan MCC, Flow Laboratories) at two wavelengths (540 and 690 nm). The absorbance measured at 690 nm was automatically subtracted from the absorbance at 540 nm, so as to eliminate the effects of non-specific absorption.
The percent protection against cytopathology caused by viruses (antiviral activity or EC50) achieved by tested compounds and their cytotoxicity (CC50) were both calculated from dose-response curves. The selectivity of the antiviral effect is represented by the selectivity index (SI), calculated by dividing the CC50 (cytotoxic dose for 50% of the cells) by the EC50 (antiviral activity for 50% of the cells).

SMILES	Activity
Cc1ccc(O)c(Cn2c(N)nc3ccc(CNc4cc(C#N)ccc4CCO)cc32)n1 [Compound 89]	10.6
Cc1ccc(O)c(Cn2c(N)nc3ccc(CNc4ccccc4CO)cc32)n1 [Compound 11]	8.4
CC(=O)O.COc1ccccc1NCc1ccc2nc(N)n(Cc3nc(C)ccc3O)c2c1 [Compound 7]	8.5
COc1cc(NCc2ccc3nc(N)n(Cc4nc(C)ccc4O)c3c2)cc(OC)c1 [Compound 34]	7.7
Cc1ccc(O)c(Cn2c(N)nc3ccc(CNc4ccc(C(N)=O)cc4)cc32)n1 [Compound 85]	8.4
Cc1ccc(O)c(Cn2c(N)nc3ccc(CNc4cccc(C(=N)N)c4)cc32)n1 [Compound 41]	7.7
Cc1ccc(O)c(Cn2c(N)nc3ccc(CNc4cc(OCC(F)(F)F)cc(OCC(F)(F)F)c4)cc32)n1 [Compound 80]	6.2
CCOC(=O)c1ccccc1NCc1ccc2nc(N)n(Cc3nc(C)ccc3O)c2c1 [Compound 68]	7.2
Cc1ccc(O)c(Cn2c(N)nc3ccc(CNc4cccc(CC(=O)O)c4)cc32)n1 [Compound 46]	7.6
CCOc1cccc(NCc2ccc3nc(N)n(Cc4nc(C)ccc4O)c3c2)c1 [Compound 24]	7.9
Cc1ccc(O)c(Cn2c(N)nc3ccc(CNc4ccc(C#N)cc4)cc32)n1 [Compound 13]	8.4
Cc1cc(C)cc(NCc2ccc3nc(N)n(Cc4nc(C)ccc4O)c3c2)c1 [Compound 9]	8.4
Cc1ccc(O)c(Cn2c(N)nc3ccc(CNc4ccccc4C(C)(C)C)cc32)n1 [Compound 70]	7.2
Cc1ccc(O)c(Cn2c(N)nc3ccc(CNc4cccc(F)c4)cc32)n1 [Compound 22]	7.9
Cc1ccc(O)c(Cn2c(N)nc3ccc(CNc4cccc(OCc5ccccc5)c4)cc32)n1 [Compound 77]	6.8
Cc1ccc(O)c(Cn2c(N)nc3ccc(CNc4ccc(C)c(C)c4)cc32)n1 [Compound 23]	7.9
Cc1ccc(O)c(Cn2c(N)nc3ccc(CNc4ccccc4C(N)=O)cc32)n1 [Compound 39]	7.7
COC(=O)c1cc(NCc2ccc3nc(N)n(Cc4nc(C)ccc4O)c3c2)cc(C(=O)OC)c1 [Compound 64]	7.3
Cc1ccc(O)c(Cn2c(N)nc3ccc(CNc4ccc(Br)cc4)cc32)n1 [Compound 54]	7.5
Cc1ccc(O)c(Cn2c(N)nc3ccc(CNc4cc(F)cc(F)c4)cc32)n1 [Compound 49]	7.5
CC(=O)Nc1cccc(NCc2ccc3nc(N)n(Cc4nc(C)ccc4O)c3c2)c1 [Compound 35]	7.7
CC(=O)O.CCc1ccccc1NCc1ccc2nc(N)n(Cc3nc(C)ccc3O)c2c1 [Compound 12]	8.4
Cc1ccc(O)c(Cn2c(N)nc3ccc(CNc4ccc(Br)c(F)c4)cc32)n1 [Compound 63]	7.3
Cc1ccc(O)c(Cn2c(N)nc3ccc(CNc4cccc(C)c4C)cc32)n1 [Compound 19]	8.0
CC(=O)Nc1ccc(NCc2ccc3nc(N)n(Cc4nc(C)ccc4O)c3c2)cc1 [Compound 53]	7.5
CCOC(=O)c1cccc(NCc2ccc3nc(N)n(Cc4nc(C)ccc4O)c3c2)c1 [Compound 59]	7.3
Cc1ccc(O)c(Cn2c(N)nc3ccc(CNc4ccc(Br)c(C(F)(F)F)c4)cc32)n1 [Compound 62]	7.3
Cc1ccc(O)c(Cn2c(N)nc3ccc(CNc4cc(C(C)(C)C)cc(C(C)(C)C)c4)cc32)n1 [Compound 76]	6.8
COc1ccc(NCc2ccc3nc(N)n(Cc4nc(C)ccc4O)c3c2)cc1O [Compound 75]	7

Same assay, conditions: Table 2; RSV in HeLa cells, MTT, seven days after infection; pEC50 = -log of EC50 in molar units

SMILES	Activity
Cc1ccc(O)c(Cn2c(N)nc3cc(CNc4cccc(Cl)c4)ccc32)n1 [Compound 122]	<4.0
Cc1cccc(NCc2ccc3c(c2)nc(N)n3Cc2nc(C)ccc2O)c1 [Compound 120]	6.4
Cc1cc(C)cc(NCc2ccc3c(c2)nc(N)n3Cc2nc(C)ccc2O)c1 [Compound 117]	6.8
CCc1cccc(NCc2ccc3c(c2)nc(N)n3Cc2nc(C)ccc2O)c1 [Compound 125]	<4.0
CC(=O)c1cccc(NCc2ccc3c(c2)nc(N)n3Cc2nc(C)ccc2O)c1 [Compound 118]	6.4
Cc1ccc(O)c(Cn2c(N)nc3cc(CNc4cccc(F)c4)ccc32)n1 [Compound 124]	<4.0
Cc1ccc(O)c(Cn2c(N)nc3cc(CNc4ccccc4)ccc32)n1 [Compound 116]	7.0

Same assay, conditions: Table 3; RSV in HeLa cells, MTT, seven days after infection; pEC50 = -log of EC50 in molar units

SMILES	Activity
Cc1cccc(N(Cc2ccc3nc(N)n(Cc4nc(C)ccc4O)c3c2)Cc2c[nH]cn2)c1 [Compound 176]	8.3
Cc1ccc(O)c(Cn2c(N)nc3ccc(CN(Cc4ccccc4)c4ccccc4)cc32)n1 [Compound 133]	7.5
Cc1cccc(N(Cc2ccc3nc(N)n(Cc4nc(C)ccc4O)c3c2)CC(O)CO)c1 (centres unmarked) [Compound 180]	9.3
CNC(=O)CCN(Cc1ccc2nc(N)n(Cc3nc(C)ccc3O)c2c1)c1cccc(C)c1.Cl [Compound 172]	8.8
Cc1ccc(O)c(Cn2c(N)nc3ccc(CN(C)c4ccccc4CCO)cc32)n1 [Compound 166]	6.8
Cc1cccc(N(CCCS(N)(=O)=O)Cc2ccc3nc(N)n(Cc4nc(C)ccc4O)c3c2)c1 [Compound 168]	9.3

Same assay, conditions: Table 4; RSV in HeLa cells, MTT, seven days after infection; pEC50 = -log of EC50 in molar units

SMILES	Activity
Cc1ccc(O)c(Cn2cnc3ccc(CNc4cc(Cl)cc(Cl)c4)cc32)n1 [Compound 185]	6.1
Cc1cc(C)cc(NCc2ccc3ncn(Cc4nc(C)ccc4O)c3c2)c1 [Compound 184]	6.7
Cc1ccc(O)c(Cn2cnc3ccc(/C=C/C#N)cc32)n1 [Compound 189]	4.8
Cc1ccc(O)c(Cn2cnc3ccc(NC(=O)c4ccccc4)cc32)n1 [Compound 190]	<4.0

Same assay, conditions: Table 5a; RSV in HeLa cells, MTT, seven days after infection; pEC50 = -log of EC50 in molar units

SMILES	Activity
CNc1nc2cc(CO)ccc2n1Cc1nc(C)ccc1O [Compound 202]	<4.0
CNc1nc2ccc(CO)cc2n1Cc1nc(C)ccc1O [Compound 200]	4.9
Cc1ccc(O)c(Cn2c(N)nc3ccc(CCCN)cc32)n1.Cl [Compound 196]	7.7

Same assay, conditions: Table 5b; RSV in HeLa cells, MTT, seven days after infection; pEC50 = -log of EC50 in molar units

SMILES	Activity
Cc1ccc(CCCO)c(NCc2ccc3nc(N)n(Cc4cccc5c4ncn5C)c3c2)c1 [Compound 235]	<4

Same assay, conditions: Table 6; numeric activity values, pEC50 (−log of EC50 in molar units)

SMILES	Activity
Cc1ccc(O)c(Cn2cnc3cc(CNCCc4cccn4C)ccc32)n1 [Compound 243]	4.2
Cc1ccc(O)c(Cn2cnc3cc(CNc4cc(Cl)cc(Cl)c4)ccc32)n1 [Compound 290]	<4.0
Cc1cccc(C(=O)Nc2ccc3c(c2)ncn3Cc2nc(C)ccc2O)c1 [Compound 242]	4.2
Cc1ccc(O)c(Cn2cnc3cc(CNc4cccc5cccnc45)ccc32)n1 [Compound 291]	<4.0
Cc1ccc(O)c(Cn2cnc3ccc(CNc4cccc(C)c4C)cc32)n1 [Compound 284]	<4.0
Cc1ccc(O)c(Cn2cnc3cc(CNc4cccc(C#N)c4)ccc32)n1 [Compound 292]	<4.0
Cc1ccc(O)c(Cn2cnc3cc(CCc4ccccc4)ccc32)n1 [Compound 250]	<4.0
Cc1ccc(O)c(Cn2cnc3cc(C=CC#N)ccc32)n1 [Compound 252]	<4.0
Cc1ccc(O)c(Cn2cnc3cc(CNCc4ccncc4)ccc32)n1 [Compound 270]	<4.0
Cc1ccc(O)c(Cn2cnc3cc(CNCCN(C)C)ccc32)n1 [Compound 255]	<4.0
Cc1ccc(O)c(Cn2cnc3cc(NC(=O)Cc4ccccc4)ccc32)n1 [Compound 244]	4.2

Same assay, conditions: human respiratory syncytial virus, 168 h; Table 5b; RSV in HeLa cells, MTT, seven days after infection; pEC50 = -log of EC50 in molar units; read-out: Activity (converted)

SMILES	EC50 [µM]
Nc1nc2ccc(CO)cc2n1Cc1cccc2cccnc12 [Compound 222, (2-amino-3-quinolin-8-ylmethyl-3H-benzoimidazol-5-yl)-methanol]	39.8
